Assay results from patent US9216956B2, “Deuterium-enriched 4-hydroxy-5-methoxy-N,1-dimethyl-2-oxo-N-[(4-trifluoro-methyl)phenyl]-1,2-dihydroquinoline-3-carboxamide” (ACTIVE BIOTECH AB, priority 2011, dated 2015).
Converted amounts (≈) assume the structure as drawn. “And” between values parts separate entries of the source, which are not always exact repeats. Equal entries are not always repeated.

How the values were obtained:
[1] = cited from earlier work
[2] = test system: CYP1A1 (AhR mediated induction); assay: TV-cell assay: luciferase gene reporter assay for AhR mediated induction of CYP1A1 in TV101L (HepG2) cells; type: cell-based, human; conditions: human, TV101L cells, read-out: Fold induction of luciferase expression
Experimental: (§1) ABR-215050 was tested with respect to its CYP1A inducing capability in vitro in a TV-cell assay. This assay is a luciferase gene reporter assay developed for the measurement of AhR (Aryl hydrocarbon Receptor) mediated induction of CYP1A. Human CYP1A promoters and 5′-flanking sequences were cloned into firefly luciferase expression vectors and stably integrated into the human hepatoma cell line, HepG2 (9). The isolated cell line was renamed TV101L.
(§2) The mechanism for transcription of CYP1A1 involves the binding of the inducer to the Ah receptor followed by a translocation of the ligand-Ah-receptor complex to the nucleus, where it binds to specific enhancer sequences in the 5′-flanking region of the CYP1A1 gene. These sequences are referred to as xenobiotic responsive elements (XREs).
(§3) A luciferase gene reporter assay was used for the measurement of AhR mediated induction of CYP1A1. Human CYP1A1 promoters and 5′-flanking sequences were cloned into firefly luciferase expression vectors and stably integrated into the human hepatoma cell line, HepG2 (8). The isolated cell line was renamed TV101L.
(§4) The cells were seeded in 96 well tissue culture plates 24-48 hours prior to treatment with the test compound. After the addition of ABR-215050 at a concentration of 1, 10 and 100 μM, the cells were further incubated for 12-24 hours. The cells were harvested by the addition of lysis buffer followed by a freezing/thawing cycle. An enzymatic assay was used for the determination of luciferase activity.
(§5) The same assay as used for ABR-215050 was used. The concentrations of ABR-215691 that were used and the results obtained, expressed as fold induction of luciferase expression, are shown in Table 4 and in FIG. 1.

[3] = test system: AhR (Aryl hydrocarbon Receptor) mediated induction of CYP1A1; assay: as above; type: cell-based, human; conditions: TV-cell assay
Experimental: as §1, §2, §3, §4, §5

[4] = phase II, cited from earlier work
Water solubility = type: physicochemical; conditions: for solubility: water, pH 7, aqueous buffer
Description: The water solubility of ABR-215050 and of its metabolites also was investigated. It is a well-known fact that metabolism in general aims to transform compounds to more water soluble entities (10), which mostly decreases toxicity but also facilitates renal elimination. […]

CYP1A2 = assay: In vivo CYP1A2 induction in rat, MROD activity of liver microsomes
Experimental: (§6) The in vivo induction of CYP1A1 and CYP1A2 after repeated administration of ABR-215050 and of ABR-215050-dx, respectively, was studied in rat.
(§7) Test preparations B and C and blank preparation A were made as follows: For preparation B, ABR-215050 was dissolved in NaOH and sterile water at a concentration of 0.5 mg/mL. The pH of the solution was adjusted to pH 7.4-8.5. Preparation C was made in the same way, using ABR-215050-dx. Preparation A was a blank containing only water. The preparations were stored in a refrigerator for a maximum of one week before use.
(§8) On arrival at the laboratory, the test animals were 9 weeks old Sprague Dawley male rats having a body weight of 250 g. They were divided into 3 groups and were allowed to acclimatize for at least 7 days before the test. During the whole acclimatization and test period, the animals received water and feed (Labfor R70, form Kimstad, Sweden) ad libitum, and were kept under a 12 hours dark/12 hours light cycle, at a temperature of 20±2° C. and a relative humidity of 50±15%.
(§9) Before administration of any test preparation, the body weight of each animal was measured and the individual dose to be administered to an animal was determined based on the weight of the animal. Administration was performed perorally during 4 days, cf.
(§10) At 24 h after administration of the final dose, the animals were weighed and from each animal a final blood sample was withdrawn for a pharmacokinetic analysis. The animals then were euthanized and from each one the liver was withdrawn, weighed, and immediately frozen in crushed dry ice. The livers then were stored at −70° C. until preparation of microsomes.
(§11) Microsomes were prepared according to the method M-0287 “Preparation of subcellular fractions from animal tissues” and then kept at −70° C. until analysis.
(§12) The total protein concentration of the microsomal fraction was determined according to the method M-0289 “Determination of Protein according to Hartree”.

[5] = In vivo pharmacokinetics in rat: plasma levels of parents and amide-N demethyl metabolite after 1:1 mixture
Description: Therefore, the pharmacokinetic characteristics of the amide-N methyl deuterated ABR-215050 (herein below referred to as ABR-215050-dx), wherein the amide-N methyl moiety was tri-deuterated, compared to the non-deuterated parent compound were studied in rat. […] In other words: relative to ABR-215050, the in vivo formation of ABR-215691 was reduced to only 25% when ABR-215050-dx was used.
A deuterated (also referred to as deuterium-enriched) ABR-215050 was synthesized, wherein the amide-N methyl moiety was trideuterated (ABR-215050-dx). This deuterated compound was diluted with non-deuterated ABR-215050 to a molar ratio of 1:1. The 1:1 equivalent molar mixture was administrated to rats in an in vivo experiment. Because of additional 13-carbon labeling in the quinoline scaffold, the formed amide-N demethyl metabolites could be measured selectively by means of HPLC-MS (High performance Liquid Chromatography with Mass Spectrometric detection). In Table 5, the plasma levels of ABR-215050-dx and ABR-215050 (in nM) measured in 4 different rats are shown, as well as the ratio of these two compounds.

CYP1A1 = assay: In vivo CYP1A1 induction in rat, EROD activity of liver microsomes; conditions: for CYP1A1 activity (EROD), Mean / mean fold induction of CYP1A1: group mean; for CYP1A1 activity (EROD), Mean: 1 mg/kg perorally days 1-4; for mean fold induction of CYP1A1 / CYP1A1 Fold induction: versus water group; for CYP1A1 activity (EROD) / CYP1A1 Fold induction: individual rat; for CYP1A1 activity (EROD): 1 mg/kg perorally days 1-4, liver microsomes 24 h after final dose, 1 mg/kg
Experimental: as §6, §7, §8, §9, §10, §11, §12

LNCaP tumor = assay: Anti-tumor effect on subcutaneous LNCaP-19 tumor in Nude BALB/c mice; type: in vivo, mouse; conditions: 10 mg/kg/day via drinking water from day 7
Experimental: The anti-tumor effect of deuterated ABR-215050 was studied in mouse.
The castration resistant subline LNCaP-19 was previously established from LNCaP cells (12). Cells were maintained as previously described (13). The LNCaP-19 cells were between passage 10 and 23 when used in the experiments. Passage 1 is defined as the first passage in our laboratory. The cells were tested and found free from mycoplasma.
Male athymic Nude BALB/c mice (age 8 weeks) were purchased from Taconic (Lille Skensved, Denmark). For subcutaneous implantation, one million tumor cells suspended in 200 μl Matrigel (BD Bioscience, Bedford, Mass.) were inoculated on the flank of the mice. The tumor size was measured by a caliper once a week throughout the experiment and the tumor take was 75% in the untreated control group (n=12). In the tumor growth experiment, ABR-215050-dx (10 mg/kg/day) was administered via drinking water from day 7. To assure appropriate dose was given with no significant fluctuations, water consumption was monitored for each animal cage during the entire experiment. […] Animals were sacrificed when the average tumor size for the control group reached a volume of 900±100 mm^3 or when the tumor volume for an individual animal reached 1200 mm^3 The results are illustrated in FIG. 7.

COc1cccc2c1c(O)c(C(=O)N(C)c1ccc(C(F)(F)F)cc1)c(=O)n2C [ABR-215050, 4-hydroxy-5-methoxy-N,1-dimethyl-2-oxo-N-[(4-trifluoromethyl)phenyl]-1,2-dihydroquinoline-3-carboxamide, reference compound]
steady state plasma levels ([1]; 1-10 mg/kg/day via drinking water): 0.4 to 1 µM
plasma half-life ([1]; in vivo): 3.4 h
fold induction at 1 µM ([2]; 12-24 hours): 5.2
fold induction at 10 µM ([2]; 10 μM, 12-24 hours): 7.3
fold induction at 100 µM ([2]; 100 μM, 12-24 hours): 11.8
CYP1A induction (in words) [3]: did not induce CYP1A
tolerability ([4]; patients): generally well tolerated
median progression free survival ([4]; patients, placebo 3.2 months (p=0.0009)): 7.6 months
fraction of patients with disease progression during the six month period ([4]; placebo 66% (p<0.0001)): 31%
solubility (Water solubility): 500 µg/mL (≈ 1230 µM)
CYP1A2 activity (MROD), Mean (CYP1A2; group mean, 1 mg/kg perorally days 1-4): 334 pmol/mg prot/min
mean fold induction of CYP1A2 (CYP1A2; group mean, versus water group): 17
CYP1A2 activity (MROD) (CYP1A2; individual rat, 1 mg/kg perorally days 1-4, liver microsomes 24 h after final dose, 1 mg/kg): 311 pmol/mg prot/min and 357 pmol/mg prot/min
CYP1A2 Fold induction (CYP1A2; individual rat, versus water group): 16 and 18
concentration at 1 h ([5]; plasma, oral, rat No 1, 1 h, peroral 2.5 mg/kg of each compound (1:1 mixture), read-out: Plasma level): 13.8 µM
concentration at 2 h ([5]; plasma, oral, rat No 2, 2 h, peroral 2.5 mg/kg of each compound (1:1 mixture), read-out: Plasma level): 13.9 µM
concentration at 3 h ([5]; plasma, oral, rat No 3, 3 h, peroral 2.5 mg/kg of each compound (1:1 mixture), read-out: Plasma level): 7.38 µM
concentration at 4 h ([5]; plasma, oral, rat No 4, 4 h, peroral 2.5 mg/kg of each compound (1:1 mixture), read-out: Plasma level): 17.8 µM
CYP1A1 activity (EROD), Mean (CYP1A1): 1891 pmol/mg prot/min
mean fold induction of CYP1A1 (CYP1A1): 42
CYP1A1 activity (EROD) (CYP1A1): 1342 pmol/mg prot/min and 2440 pmol/mg prot/min
CYP1A1 Fold induction (CYP1A1): 30 and 54

[2H]C([2H])([2H])N(C(=O)c1c(O)c2c(OC)cccc2n(C)c1=O)c1ccc(C(F)(F)F)cc1 [ABR-215050-dx, 4-Hydroxy-5-methoxy-N-deuteriomethyl-1-methyl-2-oxo-N-[(4-trifluoromethyl)phenyl]-1,2-dihydroquinoline-3-carboxamide]
anti-tumor effect (in words) (LNCaP tumor): retains a high therapeutic activity
mean fold induction of CYP1A2 (CYP1A2; rat, in vivo): 5.5
reduction of the fold induction of CYP1A2 versus ABR-215050 (CYP1A2; rat, in vivo): 68%
CYP1A2 activity (MROD), Mean (CYP1A2; rat, in vivo, 1 mg/kg): 111 pmol/mg prot/min
Ratio of metabolite plasma levels, Mean ([5]; mean of rats 1-4): 0.26
Reduction of amide-N demethylation, Mean ([5]; mean of rats 1-4): 74.1%
Plasma levels of ABR-215691 from the administered compound, Mean ([5]; mean of rats 1-4 (1-4 h), peroral 2.5 mg/kg): 0.0748 µM
formation of demethylated metabolite compared to non-deuterium labeled ABR-215050 (in words) ([5]; rat): diminished by as much as a factor of four
in vivo formation of ABR-215691 relative to ABR-215050 ([5]; rat): 25%
Ratio ABR-215050-dx/ABR-215050 (plasma levels) ([5]; rat No 1, 1 h): 0.97
Ratio of metabolite plasma levels (ABR-215691 from ABR-215050-dx / from ABR-215050) ([5]; rat No 1, 1 h): 0.24
Reduction of amide-N demethylation ([5]; rat No 1, 1 h): 75.8%
Plasma levels of ABR-215691 from the administered compound ([5]; rat No 1, 1 h, peroral 2.5 mg/kg): 0.064 µM
Plasma level ([5]; rat No 1, 1 h, peroral 2.5 mg/kg of each compound (1:1 mixture)): 13.394 µM
Ratio ABR-215050-dx/ABR-215050 (plasma levels) ([5]; rat No 2, 2 h): 0.99
Ratio of metabolite plasma levels (ABR-215691 from ABR-215050-dx / from ABR-215050) ([5]; rat No 2, 2 h): 0.30
Reduction of amide-N demethylation ([5]; rat No 2, 2 h): 70.5%
Plasma levels of ABR-215691 from the administered compound ([5]; rat No 2, 2 h, peroral 2.5 mg/kg): 0.0939 µM
Plasma level ([5]; rat No 2, 2 h, peroral 2.5 mg/kg of each compound (1:1 mixture)): 13.665 µM
Ratio ABR-215050-dx/ABR-215050 (plasma levels) ([5]; rat No 3, 3 h): 0.99
Ratio of metabolite plasma levels (ABR-215691 from ABR-215050-dx / from ABR-215050) ([5]; rat No 3, 3 h): 0.24
Reduction of amide-N demethylation ([5]; rat No 3, 3 h): 75.7%
Plasma levels of ABR-215691 from the administered compound ([5]; rat No 3, 3 h, peroral 2.5 mg/kg): 0.0466 µM
Plasma level ([5]; rat No 3, 3 h, peroral 2.5 mg/kg of each compound (1:1 mixture)): 7.322 µM
Ratio ABR-215050-dx/ABR-215050 (plasma levels) ([5]; rat No 4, 4 h): 1.00
Ratio of metabolite plasma levels (ABR-215691 from ABR-215050-dx / from ABR-215050) ([5]; rat No 4, 4 h): 0.25
Reduction of amide-N demethylation ([5]; rat No 4, 4 h): 74.6%
Plasma levels of ABR-215691 from the administered compound ([5]; rat No 4, 4 h, peroral 2.5 mg/kg): 0.0946 µM
Plasma level ([5]; rat No 4, 4 h, peroral 2.5 mg/kg of each compound (1:1 mixture)): 17.824 µM
reduction of the fold induction of CYP1A1 versus ABR-215050 (CYP1A1; (42-11.5)/42×100%): 73%
CYP1A1 activity (EROD), Mean (CYP1A1): 534 pmol/mg prot/min
mean fold induction of CYP1A1 (CYP1A1): 11.5
CYP1A1 activity (EROD) (CYP1A1): 556 pmol/mg prot/min and 511 pmol/mg prot/min
CYP1A1 Fold induction (CYP1A1): 12 and 11

COc1cccc2c1c(O)c(C(=O)Nc1ccc(C(F)(F)F)cc1)c(=O)n2C [ABR-215691]
fold induction at 0.01 µM ([2]; 0.01 μM): 15.1
fold induction at 0.1 µM ([2]; 0.1 μM): 14.9
fold induction at 1 µM ([2]; 12-24 hours): 21.3
CYP1A induction (in words) [3]: substantial CYP1A inducing capacity
water solubility (in words) (Water solubility): extremely low water solubility
solubility (Water solubility): < 0.01 µg/mL

COc1cccc2[nH]c(=O)c(C(=O)N(C)c3ccc(C(F)(F)F)cc3)c(O)c12 [ABR-219694]
CYP1A induction (in words) [3]: not to induce CYP1A
water solubility (in words) (Water solubility): highly water soluble

CN(C(=O)c1c(O)c2c(O)cccc2n(C)c1=O)c1ccc(C(F)(F)F)cc1 [ABR-222097]
CYP1A induction (in words) [3]: not to induce CYP1A
water solubility (in words) (Water solubility): highly water soluble
